This note sets out measurements from ChEMBL document CHEMBL1201862, “PubChem BioAssay data set” (2004).

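Cells were grown in 96-well plates and exposed to each compound for 48 hours at five concentrations; endpoints were interpolated linearly between bracketing concentrations, or set to the highest concentration if not reached. GI50 = concentration required for 50% inhibition of growth.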 Activity calls are given as the source filed them. Cut-off read from the data, not from the text of the source: active = GI50 up to about 1.1 µM and inactive = higher. Bounds are passed on as bounds.

Some test systems named below: NCI-H522; KM12; M14; NCI-H460; CAKI-1; IGROV-1; OVCAR-8; MOLT-4; CCRF-CEM; HOP-92; HT-29; MDA-MB-231; 786-0; COLO 205; SF-539; SK-MEL-28; RPMI-8226; HL-60; SN12C; HOP-62.
What all share (assay): DTP human tumour cell line panel, 48 h

In the case of `CN(C)CCN(c1ccccn1)c1ccccn1`, the GI50 with NCI-H522, in the assay on KM12, in the assay with M14, in the assay on NCI-H460, in the assay with CAKI-1 and in the assay on IGROV-1 was > 100 µM (inactive) throughout. Moreover, the GI50 in the assay with OVCAR-8, with MOLT-4, in the assay on CCRF-CEM, in the assay with HOP-92, in the assay on HT-29 and in the assay with MDA-MB-231 was > 100 µM (inactive) each time. Further, the GI50 in the assay with 786-0, with COLO 205, in the assay on SF-539, in the assay on SK-MEL-28, in the assay with RPMI-8226 and with HL-60 was > 100 µM (inactive) throughout. Also, the GI50 in the assay on SN12C and in the assay on HOP-62 was > 100 µM (inactive) in each case.
With `c1cc(C[S+]2CCCC2)ccc1C[S+]1CCCC1`, the GI50 in the assay on NCI-H522, in the assay on KM12, in the assay with M14, in the assay with NCI-H460, in the assay on CAKI-1 and in the assay with IGROV-1 was > 100 µM (inactive) throughout. Also, the GI50 with OVCAR-8, with MOLT-4, in the assay with CCRF-CEM, in the assay on HOP-92, in the assay on HT-29 and in the assay with MDA-MB-231 was > 100 µM (inactive) throughout. In addition, the GI50 with 786-0, in the assay on COLO 205, in the assay on SF-539, with SK-MEL-28, in the assay on RPMI-8226 and in the assay with HL-60 was > 100 µM (inactive) each time. In addition, the GI50 in the assay on SN12C and with HOP-62 was > 100 µM (inactive) throughout.
As to `CCc1nc(N)nc(N)c1-c1ccc([N+](C)(C)C)cc1`, the GI50 is > 100 µM (inactive) with NCI-H522; > 100 µM (inactive) in the assay on KM12; > 100 µM (inactive) in the assay with M14; > 90.2 µM (inactive) with NCI-H460; > 100 µM (inactive) with CAKI-1; > 100 µM (inactive) with IGROV-1. The GI50 in the assay with OVCAR-8, with MOLT-4, with CCRF-CEM, with HOP-92, with HT-29 and in the assay on MDA-MB-231 was > 100 µM (inactive) each time. Further, the GI50 with 786-0, with COLO 205, in the assay with SF-539, in the assay on SK-MEL-28, with RPMI-8226 and in the assay with HL-60 was > 100 µM (inactive) each time. The GI50 in the assay with SN12C and in the assay with HOP-62 was > 100 µM (inactive) each time.
For the compound `CN(C)CCCN1c2ccccc2CCc2cccc([N+](=O)[O-])c21`, the GI50 in the assay on NCI-H522 is 15.8 µM (inactive); in the assay with KM12, 17.1 µM (inactive); with M14 it was 15.7 µM (inactive); in the assay on NCI-H460, 18.2 µM (inactive); with CAKI-1 it was 20 µM (inactive); in the assay on IGROV-1, 16.9 µM (inactive). In addition, the GI50 in the assay with OVCAR-8 is 15.9 µM (inactive); in the assay on MOLT-4 it was 13.7 µM (inactive); in the assay on CCRF-CEM, 5.38 µM (inactive); in the assay with HOP-92, 14.4 µM (inactive); in the assay on HT-29, 14.6 µM (inactive); with MDA-MB-231, 25.2 µM (inactive). Besides, the GI50 is 15.3 µM (inactive) in the assay on 786-0; 17.8 µM (inactive) with COLO 205; 17.7 µM (inactive) in the assay on SF-539; 13.4 µM (inactive) with SK-MEL-28; 11.1 µM (inactive) in the assay on RPMI-8226; 15.5 µM (inactive) with HL-60. Further, the GI50 was 21.3 µM (inactive) with SN12C and 16.5 µM (inactive) with HOP-62.
`CC(=O)OC1COC(Nc2nc(N)n(C)c(=O)c2N=O)C(OC(C)=O)C1OC(C)=O` (configuration not stated): the GI50 in the assay on NCI-H522, with KM12, in the assay on M14, in the assay on NCI-H460, with CAKI-1 and in the assay on IGROV-1 was > 10 µM (inactive) each time. For the same compound, the GI50 in the assay on OVCAR-8, in the assay with MOLT-4, in the assay with CCRF-CEM, in the assay on HOP-92, in the assay with HT-29 and in the assay with MDA-MB-231 was > 10 µM (inactive) throughout. The GI50 in the assay with 786-0, with COLO 205, in the assay with SF-539, in the assay with SK-MEL-28, with RPMI-8226 and in the assay with HL-60 was > 10 µM (inactive) in each case. For the same compound, the GI50 in the assay on SN12C and in the assay on HOP-62 was > 10 µM (inactive) in each case.
For the compound `Cc1cc(=O)oc2c(C3=NN(C=O)C(c4ccccc4)C3)c(O)ccc12` (configuration not stated), the GI50 is 54 µM (inactive) with NCI-H522; > 100 µM (inactive) in the assay on KM12; 51.9 µM (inactive) with M14; 73.3 µM (inactive) with NCI-H460; > 72.1 µM (inactive) in the assay with CAKI-1; 70 µM (inactive) in the assay with IGROV-1. Also, the GI50 in the assay on OVCAR-8 is 71.1 µM (inactive); in the assay on MOLT-4, > 73.6 µM (inactive); in the assay on CCRF-CEM, 60.5 µM (inactive); in the assay on HOP-92, 23 µM (inactive); in the assay on HT-29, > 80.7 µM (inactive); with MDA-MB-231 it was 59.6 µM (inactive). The GI50 with 786-0 is 26.1 µM (inactive); in the assay with COLO 205 it was > 71.8 µM (inactive); with SF-539, 52.4 µM (inactive); in the assay with SK-MEL-28, > 100 µM (inactive); in the assay on RPMI-8226, > 79.3 µM (inactive); with HL-60, > 100 µM (inactive). Also, the GI50 with SN12C is 90.2 µM (inactive); in the assay with HOP-62, 37.1 µM (inactive).
Consider `C/C(=N\Nc1nc2cc(C(F)(F)F)ccc2s1)c1ccccn1`, for which the GI50 in the assay on NCI-H522 was 0.111 µM (active); with KM12, 0.526 µM (active); in the assay on M14, 0.282 µM (active); with NCI-H460, 0.452 µM (active); in the assay on CAKI-1, 0.0537 µM (active); in the assay on IGROV-1 it was 0.123 µM (active). Besides, the GI50 is 0.0621 µM (active) in the assay with OVCAR-8; 0.0264 µM (active) in the assay with MOLT-4; 0.0853 µM (active) in the assay on CCRF-CEM; 0.593 µM (active) in the assay on HOP-92; 0.0422 µM (active) in the assay on HT-29; 0.0555 µM (active) in the assay with MDA-MB-231. Besides, the GI50 in the assay on 786-0 is 0.34 µM (active); in the assay on COLO 205 it was 0.0442 µM (active); in the assay with SF-539, 1.42 µM (inactive); in the assay with SK-MEL-28 it was 0.211 µM (active); in the assay on RPMI-8226 it was 0.402 µM (active); in the assay on HL-60, 0.127 µM (active). Moreover, the GI50 in the assay on SN12C was 0.23 µM (active); with HOP-62, 2.41 µM (inactive).
Consider `O=c1cc(N2CCCC2)[nH]c(=O)n1-c1cccc(Cl)c1`, for which the GI50 in the assay on NCI-H522, with KM12, in the assay on M14, in the assay on NCI-H460, in the assay on CAKI-1 and in the assay on IGROV-1 was > 100 µM (inactive) throughout. The GI50 with OVCAR-8, in the assay with MOLT-4, in the assay on CCRF-CEM, in the assay on HOP-92, in the assay with HT-29 and with MDA-MB-231 was > 100 µM (inactive) each time. Also, the GI50 in the assay on 786-0, in the assay on COLO 205, with SF-539, with RPMI-8226, in the assay with HL-60 and in the assay with SN12C was > 100 µM (inactive) in each case. The GI50 in the assay with HOP-62 was > 100 µM (inactive).
Consider `CC(=O)N1C(Nc2ccccn2)CCN1c1ccccc1` (configuration not stated), for which the GI50 in the assay on NCI-H522, with M14, in the assay on NCI-H460, in the assay with CAKI-1, in the assay on IGROV-1 and in the assay on OVCAR-8 was > 10 µM (inactive) each time. The GI50 in the assay on MOLT-4, in the assay with CCRF-CEM, in the assay on HOP-92, in the assay with HT-29, in the assay with MDA-MB-231 and in the assay with 786-0 was > 10 µM (inactive) each time. Besides, the GI50 with COLO 205, with SF-539, with SK-MEL-28, in the assay on RPMI-8226, with HL-60 and with SN12C was > 10 µM (inactive) throughout. Further, the GI50 with HOP-62 was > 10 µM (inactive).
On to `O=C1CCC2(CC1CC(Sc1ccccc1)Sc1ccccc1)OCCO2` (configuration not stated), for which the GI50 with NCI-H522 was 23.3 µM (inactive); in the assay on KM12, 27.4 µM (inactive); with M14 it was 43.9 µM (inactive); in the assay on NCI-H460 it was 31.8 µM (inactive); with CAKI-1 it was 34.9 µM (inactive); with IGROV-1, 74.3 µM (inactive). Also, the GI50 was 42.5 µM (inactive) in the assay with OVCAR-8; 20.7 µM (inactive) with MOLT-4; 31 µM (inactive) with CCRF-CEM; 28 µM (inactive) with HOP-92; 61.4 µM (inactive) with HT-29; 83.4 µM (inactive) in the assay with MDA-MB-231. The GI50 in the assay with 786-0 was 45.7 µM (inactive); in the assay with COLO 205, 25.2 µM (inactive); in the assay with SF-539, 43.1 µM (inactive); in the assay on SK-MEL-28, 85.9 µM (inactive); in the assay with RPMI-8226, 30 µM (inactive); with HL-60, 19.8 µM (inactive). In the assay on HOP-62, the GI50 was 81.1 µM (inactive).
